Experimental data published in patent publication US7094909B2, “HIV protease inhibitors, compositions containing the same, their pharmaceutical uses and materials for their synthesis” (priority 2001, dated 2006).
Like-named read-outs stand apart in the source and are kept apart here.

Experiments:
[1] = molecular target: T1, HIV-1 protease (Q7S mutant form) (Human immunodeficiency virus type 1 group M subtype B, UniProt P04585, Q495S); experiment: HIV-1 Protease RET assay; format: biochemical
T1 construct: made in house
Procedure, shortened: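 Ki values fitted with the Morrison tight-binding equation from steady-state RET cleavage (ex 340, em 490 nm) of 5 μM RE(EDANS)SQNYPIVQK(DABCYL)R. Buffer pH 4.8 acetate, 1M NaCl, 5 mM DTT, 1 mg/ml BSA, 10% DMSO; 2 nM Q7S mutant dimer, 37 °C, 12 min.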

[2] = test system: HIV-1 (HIV-1 RF, HIV-1 NL4-3) in CEM-SS / MT-2 cells; experiment: Cytopathic effect (CPE) inhibition assay (XTT/MTT dye reduction); format: cell-based
Procedure: T-cell lines, CEM-SS, and MT-2, and viruses HIV-1 RF and HIV-1 NL4-3 (pNL4-3) were obtained from the National Institutes of Health (AIDS Research and Reference Reagent Program, Bethesda, Md.).
Cytopathic Effect (CPE) Inhibition Assays
The ability of compounds to protect cells against HIV infection was measured by the […] dye reduction method, essentially as described (See Pauwels, R. Balzarini, J. Baba, M. Snoeck, R. Schols, D. Herdewijn, P. Desmyter, J. and De Clercq, E. 1988, “Rapid and automated tetrazolium-based colorimetric assay for the detection of anti-HIV compounds,”. J Virol. Methods., 20: 309–321 and Weislow, O. S. Kiser, R. Fine, D. L. Bader, J. Shoemaker, R. H. and Boyd, M. R. 1989. “New soluble-formazan assay for HIV-1 cytopathic effects: application to high-flux screening of synthetic and natural products for AIDS-antiviral activity”. J. Natl. Cancer Inst. 81:577–586). Subject cells were infected with test virus at an moi of 0.025 to 0.819 or mock infected with medium only and added at 2×10^4 cells per well into 96 well plates containing half-log dilutions of test compounds. Six days later, 50 μl of XTT (1 mg/ml XTT tetrazolium, 0.02 nM phenazine methosulfate) was added to the wells and the plate was reincubated for four hours. Viability, as determined by the amount of XTT formazan produced, was quantified spectrophotometrically by absorbance at 450 nm. Data from CPE assays were expressed as the percent of formazan produced in compound-treated cells compared to formazan produced in wells of uninfected, compound-free cells. The fifty percent effective concentration (EC50) was calculated as the concentration of compound that effected an increase in the percentage of formazan production in infected, compound-treated cells to 50% of that produced by uninfected, compound-free cells. The 50% cytotoxicity concentration (CC50) was calculated as the concentration of compound that decreased the percentage of formazan produced in uninfected, compound-treated cells to 50% of that produced in uninfected, compound-free cells. The therapeutic index was calculated by dividing the cytotoxicity (CC50) by the antiviral activity (EC50).

[3] = Ave. Ki (nM), RET assay, Q7S enzyme, Morrison tight binding fit
[4] = Human immunodeficiency virus 1, NL43, read-out: Ave CPE EC50
[5] = Human immunodeficiency virus 1, NL43, unit inferred, read-out: EC50

Q: With Cc1c(O)cccc1C(=O)N[C@@H](Cc1ccccc1)[C@H](O)C(=O)N1CSC(C)(C)[C@H]1C(=O)N[C@@H]1CCCc2sccc21 [Example A49, 3-[2-Hydroxy-3-(3-hydroxy-2-methyl-benzoylamino)-4-phenyl-butyryl]-5,5-dimethyl-thiazolidine-4-carboxylic acid (4,5,6,7-tetrahydro-benzo[b]thiophen-4-yl)-amide] as the compound, how does the Ki [1, 3] read?
A: 0.49 nM

Q: And the EC50 [2, 4]?
A: 161 nM

Q: For Cc1ccc(C(=O)N[C@@H](Cc2ccccc2)[C@H](O)C(=O)N2CSC(C)(C)[C@H]2C(=O)N[C@H]2CCc3ccccc32)c(C)c1O [Example B43, (R)-3-((2S,3S)-2-Hydroxy-3-{[1-(3-hydroxy-2,4-dimethyl-phenyl)-methanoyl]-amino}-4-phenyl-butanoyl)-5,5-dimethyl-thiazolidine-4-carboxylic acid (S)-indan-1-ylamide], which Ki [1, 3] is on record?
A: < 0.1 nM

Q: What about the EC50 [2, 4] of the same compound?
A: 375 nM

Q: Which Ki [1, 3] does the source give for Cc1c(O)cccc1C(=O)N[C@@H](Cc1ccccc1)[C@H](O)C(=O)N1CC(F)(F)C[C@H]1C(=O)N[C@H]1CCCc2ccccc21 [Example C3, (S)-4,4-Difluoro-1-((2S,3S)-2-hydroxy-3-{[1-(3-hydroxy-2-methyl-phenyl)-methanoyl]-amino}-4-phenyl-butanoyl)-pyrrolidine-2-carboxylic acid (1,2,3,4-tetrahydro-naphthalen-1-yl)-amide] here?
A: 0.16 nM

Q: And the EC50 [2, 4]?
A: 486 nM

Q: For Cc1ccccc1CNC(=O)[C@H]1N(C(=O)[C@@H](O)[C@H](Cc2ccccc2)NC(=O)COc2cccc3ccccc23)CSC1(C)C, which Ki ([1]; Ki, unit inferred) is on record?
A: 5.8 nM

Q: And the EC50 [2, 5]?
A: ≥ 3200 nM

Q: What does the source list for Cc1ccccc1CNC(=O)[C@H]1N(C(=O)[C@@H](O)[C@H](Cc2ccccc2)NC(=O)c2cccc3c2CCCN3)CSC1(C)C [Example B2, 1,2,3,4-Tetrahydro-quinoline-5-carboxylic acid {(1S,2S)-1-benzyl-3-[(R)-5,5-dimethyl-4-(2-methyl-benzylcarbamoyl)-thiazolidin-3-yl]-2-hydroxy-3-oxo-propyl}-amide]?
A: Ki [1, 3]: 0.35 nM; EC50 [2, 4]: 87 nM

Q: How did the Ki ([1]; Ki, unit inferred) turn out when Cc1ccccc1CNC(=O)[C@H]1N(C(=O)[C@@H](O)[C@H](Cc2ccccc2)NC(=O)CBr)CSC1(C)C was run?
A: 0.78 nM

Q: And the EC50 [2, 5]?
A: ≥ 1000 nM

Q: CCCNC(=O)[C@@H]1CC(F)(F)CN1C(=O)[C@@H](O)[C@H](Cc1ccccc1)NC(=O)c1cccc(O)c1C [Example C7, 4,4-Difluoro-1-[2-hydroxy-3-(3-hydroxy-2-methyl-benzoylamino)-4-phenyl-butyryl]-pyrrolidine-2-carboxylic acid propylamide] was tested. Which Ki [1, 3] did it give?
A: 3 nM

Q: And the EC50 [2, 4]?
A: 347 nM

Q: Which results are given for Cc1ccccc1CNC(=O)[C@@H]1CC(F)(F)CN1C(=O)[C@@H](O)[C@H](Cc1ccccc1)NC(=O)O[C@H]1CCOC1 [Example C41, {(1S,2S)-1-Benzyl-3-[(S)-4,4-difluoro-2-(2-methyl-benzylcarbamoyl)-pyrrolidin-1-yl]-2-hydroxy-3-oxo-propyl}-carbamic acid (S)-(tetrahydro-furan-3-yl)ester]?
A: Ki [1, 3]: 1.3 nM; EC50 [2, 4]: 1430 nM

Q: C#CCOC(=O)N[C@@H](Cc1ccccc1)[C@H](O)C(=O)N1CSC(C)(C)[C@H]1C(=O)NCCC was tested. Which Ki ([1]; Ki, unit inferred) did it give?
A: 4.8 nM

Q: What about the EC50 [2, 5] of the same compound?
A: 1350 nM

Q: With Cc1ccccc1CNC(=O)[C@H]1N(C(=O)[C@@H](O)[C@H](Cc2ccccc2)NC(=O)OCc2ccccc2)CSC1(C)C as the compound, how does the Ki ([1]; Ki, unit inferred) read?
A: 1.4 nM

Q: And the EC50 [2, 5]?
A: 4220 nM

Q: Cc1ccccc1CNC(=O)[C@H]1N(C(=O)[C@@H](O)[C@H](Cc2ccccc2)NC(=O)C(F)(F)F)CSC1(C)C was tested. Which Ki ([1]; Ki, unit inferred) did it give?
A: 17.1 nM

Q: And the EC50 [2, 5]?
A: 2200 nM

Q: Which Ki [1, 3] does the source give for Cc1c(O)cccc1C(=O)N[C@@H](Cc1ccccc1)[C@H](O)C(=O)N1CSC(C)(C)[C@H]1C(=O)NC1CC1 [Example A25, (R)-3-((2S,3S)-2-Hydroxy-3-{[1-(3-hydroxy-2-methyl-phenyl)-methanoyl]-amino}-4-phenyl-butanoyl)-5,5-dimethyl-thiazolidine-4-carboxylic acid cyclopropylamide] here?
A: 0.97 nM

Q: What about the EC50 [2, 4] of the same compound?
A: 125 nM

Q: How did the Ki ([1]; Ki, unit inferred) turn out when Cc1ccccc1CNC(=O)[C@H]1N(C(=O)[C@@H](O)[C@H](Cc2ccccc2)NC(=O)COc2cccc(N3CCOCC3)c2)CSC1(C)C was run?
A: 4.4 nM

Q: What about the EC50 [2, 5] of the same compound?
A: ≥ 3200 nM

Q: How did the Ki [1, 3] turn out when Cc1c(O)cccc1C(=O)N[C@@H](Cc1ccccc1)[C@H](O)C(=O)N1CSC(C)(C)[C@H]1C(=O)NCc1cccc2ccccc12 [Example A11, (R)-3-((2S,3S)-2-Hydroxy-3-{[1-(3-hydroxy-2-methyl-phenyl)-methanoyl]-amino}-4-phenyl-butanoyl)-5,5-dimethyl-thiazolidine-4-carboxylic acid (naphthalen-1-ylmethyl)-amide] was run?
A: 0.5 nM

Q: What about the EC50 [2, 4] of the same compound?
A: 144 nM

Q: CC1(C)SCN(C(=O)[C@@H](O)[C@H](Cc2ccccc2)NC(=O)[C@@H]2CCCO2)[C@@H]1C(=O)N[C@H]1CCOc2ccccc21 was tested. Which Ki ([1]; Ki, unit inferred) did it give?
A: 7.5 nM

Q: What about the EC50 [2, 5] of the same compound?
A: 1250 nM

Q: How did the Ki ([1]; Ki, unit inferred) turn out when C=CCNC(=O)[C@H]1N(C(=O)[C@@H](O)[C@H](Cc2ccccc2)NC(=O)[C@@H](NC(=O)c2ccc3ccccc3n2)C(C)C)CSC1(C)C was run?
A: ≤ 0.1 nM

Q: And the EC50 [2, 5]?
A: 41 nM

Q: For Cc1cccc(C)c1OCC(=O)N[C@@H](Cc1ccccc1)[C@H](O)C(=O)N1CSC(C)(C)[C@H]1C(=O)NC[C@H]1CCCO1, which Ki ([1]; Ki, unit inferred) is on record?
A: 4.2 nM

Q: And the EC50 [2, 5]?
A: ≥ 1000 nM

Q: With CC1(C)SCN(C(=O)[C@@H](O)[C@H](Cc2ccccc2)NC(=O)c2cccc3c2CCN3)[C@@H]1C(=O)N[C@@H]1C=CCCC1 [Example B41, 2,3-Dihydro-1H-indole-carboxylic acid {(1S,2S)-1-benzyl-3-[(R)-4-((S)-cyclohex-2-enylcarbamoyl)-5,5-dimethyl-thiazolidin-3-yl]-2-hydroxy-3-oxo-propyl}-amide] as the compound, how does the Ki [1, 3] read?
A: 0.11 nM

Q: What about the EC50 [2, 4] of the same compound?
A: 268 nM

Q: C=CCOC(=O)N[C@@H](Cc1ccccc1)[C@H](O)C(=O)N1CSC(C)(C)[C@H]1C(=O)NCc1ccccc1Cl [Example B47, {(1S,2S)-1-Benzyl-3-[(R)-4(2-chloro-benzylcarbamoyl)-5,5-dimethyl-thiazolidin-3-yl]-2-hydroxy-3-oxo-propyl}-carbamic acid allyl ester] was tested. Which Ki [1, 3] did it give?
A: 1.9 nM

Q: What about the EC50 [2, 4] of the same compound?
A: 1480 nM

Q: How did the Ki [1, 3] turn out when CCCNC(=O)[C@H]1N(C(=O)[C@@H](O)[C@H](Cc2ccccc2)NC(=O)c2cccc3c2CCN3)CSC1(C)C [Example B45, 2,3-Dihydro-1H-indole-4-carboxylic acid [(1S,2S)-1-benzyl-3-((R)-5,5-dimethyl-4-propylcarbamoyl-thiazoldin-3-yl)-2-hydroxy-3-oxo-propyl]-amide] was run?
A: 1.1 nM

Q: And the EC50 [2, 4]?
A: 572 nM

Q: With C#CCOC(=O)N[C@@H](Cc1ccccc1)[C@H](O)C(=O)N1CSC(C)(C)[C@H]1C(=O)NCc1ccc(OC)cc1 [Example B64, {(1S,2S)-1-Benzyl-2-hydroxy-3-[4-(4-methoxy-benzylcarbamoyl)-5,5-dimethyl-thiazolidin-3-yl]-3-oxo-propyl}-carbamic acid prop-2-ynyl ester] as the compound, how does the Ki [1, 3] read?
A: 0.53 nM

Q: What about the EC50 [2, 4] of the same compound?
A: 1600 nM

Q: For Cc1ccccc1CNC(=O)[C@@H]1CC(F)(F)CN1C(=O)[C@@H](O)[C@H](Cc1ccccc1)NC(=O)C1C(C)C(=O)ON1C (some centres unmarked), which Ki ([1]; Ki, unit inferred) is on record?
A: 3.6 nM

Q: What about the EC50 [2, 5] of the same compound?
A: ≥ 3200 nM

Q: Which results are given for Cc1ccccc1CNC(=O)C1N(C(=O)[C@@H](O)[C@H](CSc2ccccc2)NC(=O)c2cccc(O)c2C)CSC1(C)C (some centres unmarked) [drawing 969]?
A: Ki ([1]; Ki, unit inferred): 0.25 nM; EC50 ([2]; unit inferred, read-out: EC50): 879 nM

Q: Which EC50 [2, 5] does the source give for Cc1ccccc1CNC(=O)[C@@H]1C(C(=O)[C@@H](O)[C@H](Cc2ccccc2)NC(=O)c2cccc(O)c2C)[C@@H]2CC[C@@H]1C2 (some centres unmarked) here?
A: ≥ 10000 nM

Q: With Cc1c(O)cccc1C(=O)N[C@@H](Cc1cccc(F)c1)[C@H](O)C(=O)N1CC(F)(F)C(C)(C)[C@H]1C(=O)NCC(C)C [Example D3, (S)-4,4-Difluoro-1-[(2S,3S)-4-(3-fluoro-phenyl)-2-hydroxy-3-(3-hydroxy-2-methyl-benzoylamino)-butyryl]-3,3-dimethyl-pyrrolidine-2-carboxylic acid is butyl-amide] as the compound, how does the EC50 [2, 4] read?
A: 13 nM

Q: With C=CCNC(=O)C1N(C(=O)[C@@H](O)[C@H](Cc2cccc(F)c2)NC(=O)c2cccc(O)c2C)CC(F)(F)C1(C)C (stereo partly drawn) [Example D2, (R)-3-((2S,3R)-4,4-Difluoro-1-[4(3-fluoro-phenyl)-2-hydroxy-3-(3-hydroxy-2-methyl-benzoylamino)-butyryl])-3,3-dimethyl-pyrrolidine-2-carboxylic acid allyiamide] as the compound, how does the EC50 [2, 4] read?
A: 16 nM

Q: Cc1ccccc1CNC(=O)[C@H]1C(C(=O)[C@@H](O)[C@H](Cc2ccccc2)NC(=O)c2cccc(O)c2C)[C@@H]2CC[C@@H]1C2 (some centres unmarked) was tested. Which EC50 [2, 5] did it give?
A: ≥ 10000 nM
